From the supplement of paper PMC13380429

Tests used:
Details in all cases: 72 h
Caco-2 [1] = assay: cell viability relative to DMSO; higher = less toxic
Calu-3 [2] = assay: as above
HepG2 [3] = assay: as above
U2OS [4] = assay: as above
Vero E6 [5] = assay: as above
Caco-2 [6] = assay: relative viability EC50 (midpoint between 100% and the lowest measured viability); higher = less toxic
Calu-3 [7] = assay: as above
HepG2 [8] = assay: as above
U2OS [9] = assay: as above
Vero E6 [10] = assay: as above
Caco-2 [11] = assay: drug sensitivity score (DSS) for viability; higher = more toxic; extreme values may be limits of the assay
Calu-3 [12] = assay: as above
HepG2 [13] = assay: as above
U2OS [14] = assay: as above
Vero E6 [15] = assay: as above

| SMILES | cell viability (Caco-2 [1]; 1 nM) | cell viability (Caco-2 [1]; 10 nM) | cell viability (Caco-2 [1]; 100 nM) | cell viability (Caco-2 [1]; 1000 nM) | cell viability (Caco-2 [1]; 10000 nM) | cell viability (Calu-3 [2]; 1 nM) | cell viability (Calu-3 [2]; 10 nM) | cell viability (Calu-3 [2]; 100 nM) | cell viability (Calu-3 [2]; 1000 nM) | cell viability (Calu-3 [2]; 10000 nM) | cell viability (HepG2 [3]; 1 nM) | cell viability (HepG2 [3]; 10 nM) | cell viability (HepG2 [3]; 100 nM) | cell viability (HepG2 [3]; 1000 nM) | cell viability (HepG2 [3]; 10000 nM) | cell viability (U2OS [4]; 1 nM) | cell viability (U2OS [4]; 10 nM) | cell viability (U2OS [4]; 100 nM) | cell viability (U2OS [4]; 1000 nM) | cell viability (U2OS [4]; 10000 nM) | cell viability (Vero E6 [5]; 1 nM) | cell viability (Vero E6 [5]; 10 nM) | cell viability (Vero E6 [5]; 100 nM) | cell viability (Vero E6 [5]; 1000 nM) | cell viability (Vero E6 [5]; 10000 nM) | relative viability EC50 (Caco-2 [6]) | relative viability EC50 (Calu-3 [7]) | relative viability EC50 (HepG2 [8]) | relative viability EC50 (U2OS [9]) | relative viability EC50 (Vero E6 [10]) | drug sensitivity score (Caco-2 [11]) | drug sensitivity score (Calu-3 [12]) | drug sensitivity score (HepG2 [13]) | drug sensitivity score (U2OS [14]) | drug sensitivity score (Vero E6 [15]) |
| --- | --- | --- | --- | --- | --- | --- | --- | --- | --- | --- | --- | --- | --- | --- | --- | --- | --- | --- | --- | --- | --- | --- | --- | --- | --- | --- | --- | --- | --- | --- | --- | --- | --- | --- | --- |
| CO[C@H]1/C=C/O[C@@]2(C)Oc3c(C)c(O)c4c(O)c(c5c(nc6cc(C)ccn65)c4c3C2=O)NC(=O)/C(C)=C\C=C\[C@H](C)[C@H](O)[C@@H](C)[C@@H](O)[C@@H](C)[C@H](OC(C)=O)[C@@H]1C [rifaximin] | 137% | 112% | 87% | 98.2% | 96.4% | 94.7% | 95% | 89% | 101% | 94.6% | 110% | 95.3% | 102% | 104% | 106% | 96.7% | 99.3% | 94.6% | 93.3% | 96.4% | 106% | 93.6% | 108% | 106% | 117% | > 10 µM | > 10 µM | > 10 µM | > 10 µM | > 10 µM | 0 | 0 | 0 | 0 | 0 |
| CCCN(CCC)CCc1cccc2c1CC(=O)N2 [ropinirole] | 97.8% | 108% | 100% | 104% | 105% | 92.9% | 106% | 99.7% | 89.8% | 103% | 99.1% | 100% | 87.7% | 103% | 104% |  |  |  |  |  | 100% | 101% | 101% | 99.3% | 96.3% | > 10 µM | > 10 µM | > 10 µM |  | > 10 µM | 0 | 0 | 0 |  | 0 |
| Nc1ncnc2c1ncn2[C@@H]1O[C@@H]2COP(=O)(O)O[C@H]2[C@H]1O [cyclic-AMP] | 89.8% | 93% | 94.5% | 93.5% | 95.9% | 100% | 107% | 103% | 111% | 95.5% | 97.7% | 100% | 89.5% | 102% | 92.2% | 103% | 103% | 96.1% | 102% | 99.6% | 102% | 98.6% | 93.9% | 102% | 98.9% | > 10 µM | > 10 µM | > 10 µM | > 10 µM | > 10 µM | 0 | 0 | 0 | 0 | 0 |
| CC(C)NNC(=O)c1ccncc1 [iproniazid] | 93.6% | 95.9% | 98.9% | 90.8% | 103% | 93.2% | 97.9% | 94.6% | 107% | 99.6% | 108% | 96.4% | 108% | 104% | 105% | 96.6% | 98.9% | 97.4% | 103% | 104% | 100% | 95.1% | 101% | 90.8% | 108% | > 10 µM | > 10 µM | > 10 µM | > 10 µM | > 10 µM | 0 | 0 | 0 | 0 | 0 |
| CN(C(=O)/C=C/c1ccoc1)[C@@H]1CC[C@@]2(O)[C@H]3Cc4ccc(O)c5c4[C@@]2(CCN3CC2CC2)[C@H]1O5 [nalfurafine] | 104% | 92.9% | 99% | 107% | 104% | 92.2% | 103% | 106% | 96.8% | 91.3% | 102% | 104% | 95.5% | 97.7% | 102% | 100% | 99.8% | 100% | 103% | 105% | 90.6% | 101% | 89.5% | 95.6% | 102% | > 10 µM | > 10 µM | > 10 µM | > 10 µM | > 10 µM | 0 | 0 | 0 | 0 | 0 |
| CC(=O)Nc1cccc2c1c(Sc1ccc(Cl)cc1)c(C)n2CC(=O)O [AZD1981] | 102% | 105% | 91.6% | 102% | 103% | 102% | 96% | 89.7% | 94.3% | 96.2% | 100% | 103% | 105% | 99.8% | 97.9% | 94.6% | 102% | 94.3% | 101% | 97.6% | 98.6% | 98.1% | 97.4% | 97.4% | 94.4% | > 10 µM | > 10 µM | > 10 µM | > 10 µM | > 10 µM | 0 | 0 | 0 | 0 | 0 |
| O=C1CN=C(c2cccc(Br)c2)c2oc3ccccc3c2N1 [5-BDBD] | 101% | 96.6% | 102% | 106% | 97% | 103% | 97.2% | 112% | 96.8% | 111% | 98.3% | 100% | 94.4% | 96.8% | 92.5% | 104% | 97.5% | 95.5% | 99.7% | 101% | 96.7% | 92.8% | 94.6% | 93.5% | 95.9% | > 10 µM | > 10 µM | > 10 µM | > 10 µM | > 10 µM | 0 | 0 | 0 | 0 | 0 |
| CN(Cc1ccccc1)C(=O)[C@H](Cc1ccc2ccccc2c1)NC(=O)[C@@H]1CCCN1C(=O)Nc1ccccc1[N+](=O)[O-] [SDZ-NKT-343] | 96.3% | 97.3% | 96.1% | 89% | 75.1% | 95% | 93.7% | 98.9% | 97.3% | 90.7% | 102% | 93.9% | 103% | 93.6% | 92.2% | 105% | 103% | 101% | 106% | 87.3% | 102% | 98.7% | 106% | 97.7% | 99.2% | > 10 µM | > 10 µM | > 10 µM | > 10 µM | > 10 µM | 1.7 | 0 | 0 | 0 | 0 |
| COc1ccc(NS(=O)(=O)c2sc3ccc(Cl)cc3c2C)cc1N1CCNCC1 | 98.9% | 98.7% | 104% | 102% | 96.1% | 104% | 105% | 108% | 105% | 98.1% | 108% | 104% | 106% | 109% | 87.4% | 99.9% | 96% | 97.2% | 98.5% | 94.5% | 93.3% | 98% | 97.6% | 94.4% | 103% | > 10 µM | > 10 µM | > 10 µM | > 10 µM | > 10 µM | 0 | 0 | 0 | 0 | 0 |
| Cc1n[nH]c2ccc(-c3cncc(OC[C@@H](N)Cc4ccccc4)c3)cc12 | 96.7% | 102% | 97.8% | 92.2% | 27.3% | 105% | 102% | 93.4% | 103% | 41.3% | 103% | 95.8% | 106% | 53% | 1.7% | 99.6% | 99.8% | 97.7% | 88.3% | 2.8% | 101% | 106% | 96.3% | 66% | 5% | 2.28 µM | 3.43 µM | 1.04 µM | 2.18 µM | 1.3 µM | 5.3 | 2.9 | 11.3 | 7.3 | 9.7 |
| O=C1c2ccccc2C(=O)c2ccccc21 [anthraquinone] |  |  |  |  |  | 94.9% | 97.4% | 95.8% | 88% | 98.2% | 95.2% | 106% | 96.2% | 94.2% | 92.6% | 105% | 99.7% | 103% | 99.2% | 105% | 105% | 106% | 99.8% | 104% | 101% |  | > 10 µM | > 10 µM | > 10 µM | > 10 µM |  | 0 | 0 | 0 | 0 |
| CCCCCCCCCCCCCCCCNc1ccc(C(=O)O)cc1 [cetaben] | 99.2% | 97.4% | 109% | 93.7% | 103% | 99.5% | 101% | 98.5% | 90.8% | 95.4% | 101% | 111% | 97.3% | 105% | 99.5% | 99.5% | 97.8% | 102% | 99.2% | 98.5% | 99.8% | 99.2% | 94.4% | 98.8% | 101% | > 10 µM | > 10 µM | > 10 µM | > 10 µM | > 10 µM | 0 | 0 | 0 | 0 | 0 |
| Clc1ccc(COC(Cn2ccnc2)c2ccc(Cl)cc2Cl)c(Cl)c1 (stereo not drawn) [miconazole] | 96.3% | 98% | 96.2% | 85.9% | 72.1% | 101% | 98.8% | 102% | 91.6% | 87.1% | 97.6% | 109% | 103% | 96.2% | 75.5% | 95.5% | 94.9% | 102% | 94.2% | 92.4% | 106% | 106% | 101% | 102% | 97.2% |  | > 10 µM | > 10 µM | > 10 µM | > 10 µM | 2.4 | 0.5 | 1.5 | 0 | 0 |
| O=c1cc(-c2ccc(O)cc2)oc2cc(O)cc(O)c12 [apigenin] | 93.9% | 94.2% | 105% | 94.8% | 90.4% | 104% | 103% | 101% | 99.3% | 94.7% | 92.8% | 105% | 97.7% | 102% | 94% |  |  |  |  |  | 101% | 101% | 101% | 95.2% | 92% | > 10 µM | > 10 µM | > 10 µM |  | > 10 µM | 0 | 0 | 0 |  | 0 |
